Earlier results in patent US20210235730A1, “FOOD PROTECTION OF FRUIT, CEREAL AND VEGETABLE AND DERIVATIVES” (Hawei Technologies Co., Ltd., priority 2018, published 2021).

Legend:
moulds and yeasts = details: raw pork, heat-treated and pasteurised
[1] = test system: coliform microorganisms and arerobic spore-forming microorganisms; details: raw pork, heat-treated and pasteurised

For `N=C(N)N` [guanidium], the “effect on growth of moulds and yeasts” value (moulds and yeasts) is given as “has an effect on the growth” and the “effect on coliform and aerobic spore-forming microorganisms” value [1] is given as “not significantly influenced”.
